Values after ≈ are worked out from the molar mass of the structure shown. Values joined by “and” are separate entries in the source; they are usually repeats but may differ in a detail not shown here. Equal values may be shown once. Read-outs that look alike come from different tables or passages of the source.
How the values were obtained:
[1] = system: P. berghei sporozoite infected mice; assay: in vivo efficacy against liver stages, bioluminescence imaging; details: for % Inhibition Day 9 PI: single dose 1 hour after infection; for protection by bioluminescence imaging: 44 h, day 6, 9 and 13 PI, 25, 50, 100 mg/kg oral or subcutaneous, result in words
Protocol: Animals (n=5 per group) received a single dose by gavage 1 hour after inoculation with sporozoites. Representative images taken at 44 h, day 6, day 9, and day 13 after infection are shown. At 44 h, bioluminescent signal was detected in control untreated animals, with the highest intensity noted in the area overlaying the liver, consistent with the presence of liver-stage parasites.
At 44 h PI, day 6 PI, day 9 PI, and day 13 PI, compound efficacy was determined by bioluminescence imaging via injection of D-luciferin. Both compounds were administered orally or subcutaneously at increasing doses of 25 mg/kg, 50 mg/kg, and 100 mg/kg in PEG 400. […] Progression of parasitemia was monitored up to 30 days after infection (Table 8).

J774 mammalian cells = assay: cytotoxicity to J774 cells; assay type: cell-based; details: Mus musculus
Protocol: This allowed a simplified method for comparing the different assays being simultaneously run. Additionally, each compound was also tested for cytotoxicity using mammalian J774 cell lines in a 96-well plate format.^12-14, 16

[2] = aqueous solubility (LC/MS- or HPLC-based assay); assay type: physicochemical
Outline: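 Aqueous solubility and log D (pH 7.4) determined by LC/MS-based assays; solubility examined at more than one pH.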

[3] = system: P. berghei sporozoites expressing luciferase; assay: in vitro liver stage activity, luciferase sporozoites infecting HEPG2 hepatoma cells; assay type: cell-based; details: Plasmodium berghei, HEPG2 cells
[4] = system: malarial strain TM90-C2B (mefloquine, chloroquine, atovaquone, and pyrimethamine-resistant); assay: microbe, parasite or virus in culture; assay type: cell-based, P. falciparum; details: for EC50: Plasmodium falciparum; for RI: RI = EC50 TM90-C2B/EC50 W2
Description: Ideally, the RI of a compound should lie between 0.3 and 3.0 in order to avoid rapidly inducing resistance in the parasite. […]

[5] = lipophilicity log D at pH 7.4; assay type: physicochemical; details: octanol/water
Description: Furthermore, to profile the properties of the piperazinyl-4(1H)-quinolones, and to identify potential limitations, aqueous solubility and lipophilicity log D were experimentally determined via LC/MS-based assays as described by the Manetsch laboratory previously^8,10,31,32 (Tables 9-12). Encouragingly, the piperazinyl-4(1H)-quinolones were much more soluble than the previously described phenoxyethoxy-4(1H)-quinolone analogues.^19 As expected, the solubility of all compounds was affected by pH, with better solubility under more acidic conditions.
In parallel to testing the compounds for in vitro antimalarial activity, a limited structure-property relationship (SPR) study focusing on log D and aqueous solubility was conducted to assess potential physiochemical liabilities (FIG. 22). […] For these reasons, physicochemical properties were not strongly considered as selection criteria for in vivo efficacy studies.

Pb-infected mice = assay: in vivo efficacy scouting assay against blood stages; design: species or system P. berghei; mice; details: for activities in these scout assays: result in words; for inhibition in vivo at 50 mg/kg: Plasmodium berghei, 144 h, read-out: % Inhibition Day 6 PI
Protocol: The screening involved a single oral 50 mg/kg dose 1 day post infection (PI) and an assessment of parasitemia on days 3 PI and 6 PI (Table 6).
The screening was performed by treating two infected mice with a single 50 mg/kg oral dose of test compound suspended in PEG400 on day 1 postexposure (PE) followed by assessing parasitemia on days 3 and 6 PE.

[6] = system: malarial strain W2 (pyrimethamine and chloroquine-resistant); assay: in vitro antimalarial activity against multidrug resistant strain W2; assay type: cell-based, P. falciparum; details: Plasmodium falciparum, read-out: EC50 W2 (nM)
P. berghei-GFP parasites = assay: modified Thompson test; assay type: in vivo, P. berghei; mice; details: 10 mg/kg oral on days 3, 4 and 5 PI; survival to day 30 PI with parasitemia <1%
Protocol: Mice were infected with 1×10^6 P. berghei-GFP parasites and compounds were dosed orally on days 3, 4 and 5 PI with a dose of 10 mg/kg of compound suspended or dissolved in HEC/Tween or PEG 400. Parasitemia was observed by flow cytometry on days 3, 6, 9, 13, 21, and 30 PI. Compounds with animal survival up to day 30 PI and parasitemia levels of less than 1% on day 30 PI were considered to be cures. Lastly, animals with more than 40% parasitemia levels were euthanized.
On days 3, 6, 9, 13, 21, and 30 PE, parasitemia was monitored by Giemsa-stained blood smears. Both compounds were evaluated by the reduction of parasitemia on day 6 PE and the survival up to day 30 PE.

[7] = aqueous medium, pH 2, simulated gastric fluid, pH 2.0, read-out: Solubility pH 2.0
[8] = aqueous medium, pH 6.5, aqueous buffer, pH 6.5, read-out: Solubility pH 6.5
[9] = TM90, read-out: EC50 TM90-C2B (nM)
[10] = single oral 50 mg/kg dose 1 day PI, vs untreated animals
[11] = single oral 50 mg/kg dose 1 day PI
[12] = aqueous solution, pH 2, simulated gastric fluid, pH 2.0, read-out: Solubility pH 2.0
[13] = aqueous solution, pH 6.5, aqueous buffer, pH 6.5, read-out: Solubility pH 6.5

## COc1cc(NC(C)CCCN)c2ncccc2c1 (stereo not shown) [Primaquine, reference compound]
[1]; 50 mg/kg oral
  No. of Cures: 2/5
  % Inhibition Day 9 PI: >99.0%

## COC(=O)c1c[nH]c2cc(CN3CCN(Cc4ccccc4)CC3)ccc2c1=O [Compound 8k, Methyl 7-((4-benzylpiperazin-1-yl)methyl)-4-oxo-1,4-dihydroquinoline-3-carboxylate]
J774 mammalian cells; J774, read-out: EC50 J774 (μM)
  EC50: 10.4 µM
[2]; [7]
  solubility: ≥ 80 µM
[2]; [8]
  solubility: ≥ 80 µM
[3]
  EC50: 43.7 nM
[4]; [9]
  EC50: 153 nM
[5]
  chromatographic logD: 2.06
Pb-infected mice; [10]
  % Inhibition Day 6 PI: little to moderate protection
[6]
  EC50: 1.41 nM

## COC(=O)c1c[nH]c2cc(CN3CCN(c4ccccc4)CC3)c(OC)cc2c1=O [Compound 8w, Methyl 6-methoxy-4-oxo-7-((4-phenylpiperazin-1-yl)methyl)-1,4-dihydroquinoline-3-carboxylate]
J774 mammalian cells; J774, read-out: EC50 J774 (μM)
  EC50: > 20 µM
[2]; [7]
  solubility: ≥ 80 µM
[2]; [8]
  solubility: ≥ 80 µM
[3]
  EC50: 113 nM
[4]; [9]
  EC50: 493 nM
[5]
  chromatographic logD: 1.32
Pb-infected mice; [11]
  activities in these scout assays: excellent activities
Pb-infected mice; [10]
  % Inhibition Day 6 PI: 82.4%
[6]
  EC50: 1.62 nM

## COC(=O)c1c[nH]c2cc(CN3CCN(Cc4ccccc4)CC3)c(C)cc2c1=O [Compound 8r, Methyl 7-((4-benzylpiperazin-1-yl)methyl)-6-methyl-4-oxo-1,4-dihydroquinoline-3-carboxylate]
J774 mammalian cells; J774, read-out: EC50 J774 (μM)
  EC50: > 20 µM
[2]; [7]
  solubility: ≥ 80 µM
[2]; [8]
  solubility: ≥ 80 µM
[3]
  EC50: 9.46 nM
[4]; [9]
  EC50: 890 nM
[5]
  chromatographic logD: 1.94
Pb-infected mice; [10]
  % Inhibition Day 6 PI: little to moderate protection
[6]
  EC50: 1.45 nM

## O=C1C(O)=C([C@H]2CC[C@H](c3ccc(Cl)cc3)CC2)C(=O)c2ccccc21 [Atovaquone, atovaquone, reference compound]
J774 mammalian cells; J774, cytotoxicity, 96 well plate format, read-out: EC50 J774
  EC50: 28.3 µM
P. berghei-GFP parasites
  No. of Cures: 5/5
[4]; TM90, read-out: EC50 TM90-C2B
  EC50: 18400 nM

## COC(=O)c1c[nH]c2cc(CN3CCN(Cc4ccc(OC)cc4)CC3)ccc2c1=O [Compound 8l, Methyl 7-((4-(4-methoxybenzyl)piperazin-1-yl)methyl)-4-oxo-1,4-dihydroquinoline-3-carboxylate]
[2]; [7]
  solubility: ≥ 80 µM
[2]; [8]
  solubility: ≥ 80 µM
[3]
  EC50: 83.4 nM
[4]; [9]
  EC50: 799 nM
[5]
  chromatographic logD: 1.66
[1]; 25 mg/kg oral
  No. of Cures: 0/5
  % Inhibition Day 9 PI: 49.1%
[1]; 50 mg/kg oral
  No. of Cures: 0/5
[1]; 50 mg/kg subcutaneous
  No. of Cures: 0/5
  % Inhibition Day 9 PI: 20.1%
[1]; 100 mg/kg oral
  No. of Cures: one of five and 1/5
[1]
  protection by bioluminescence imaging: full protection at all time points only at an oral dose of 100 mg/kg
Pb-infected mice; [10]
  inhibition in vivo at 50 mg/kg: ~40%
[6]
  EC50: 2.5 nM

## COC(=O)c1c[nH]c2cc(CN3CCN(c4ccccc4)CC3)c(C)cc2c1=O [Compound 8q, Methyl 6-methyl-4-oxo-7-((4-phenylpiperazin-1-yl)methyl)-1,4-dihydroquinoline-3-carboxylate]
J774 mammalian cells; J774, read-out: EC50 J774 (μM)
  EC50: 11.9 µM
[2]; [7]
  solubility: ≥ 80 µM
[2]; [8]
  solubility: 60 to 79.9 µM (≈ 23.5 to 31.3 µg/mL)
[3]
  EC50: 6.92 nM
[4]; [9]
  EC50: 147 nM
[4]
  RI: 338
[5]
  chromatographic logD: 2.81
Pb-infected mice; [10]
  % Inhibition Day 6 PI: little to moderate protection
[6]
  EC50: 0.435 nM

## COC(=O)c1c[nH]c2cc(CN3CCN(c4ccccc4)CC3)ccc2c1=O [Compound 8j, Methyl 4-oxo-7-((4-phenylpiperazin-1-yl)methyl)-1,4-dihydroquinoline-3-carboxylate]
[2]; [7]
  solubility: ≥ 80 µM
[2]; [8]
  solubility: ≥ 80 µM
[3]
  EC50: 4.74 nM
[4]; [9]
  EC50: 483 nM
[5]
  chromatographic logD: 0.86
[1]; 25 mg/kg oral
  No. of Cures: 2/5
  % Inhibition Day 9 PI: 65.3%
[1]; 50 mg/kg oral
  No. of Cures: 2/5
  % Inhibition Day 9 PI: 85.1%
[1]; 50 mg/kg subcutaneous
  No. of Cures: 3/5
  % Inhibition Day 9 PI: >99.0%
[1]; 100 mg/kg oral
  No. of Cures: 5/5
  % Inhibition Day 9 PI: >99.0%
[1]
  protection by bioluminescence imaging: no luminescence was observed
[1]; over all doses tested, 25-100 mg/kg
  animals cured (survival curves): two or more out of five
[6]
  EC50: 1.25 nM

## COC(=O)c1c[nH]c2cc(CN3CCN(c4ccc(C(F)(F)F)cc4)CC3)ccc2c1=O [Compound 8p, Methyl 4-oxo-7-((4-(4-(trifluoromethyl)phenyl)piperazin-1-yl)methyl)-1,4-dihydroquinoline-3-carboxylate]
J774 mammalian cells; J774, read-out: EC50 J774 (μM)
  EC50: 10.7 µM
[2]; [12]
  solubility: ≥ 80 µM
[2]; [13]
  solubility: 1 to 19.9 µM (≈ 0.445 to 8.86 µg/mL)
[3]
  EC50: 15.6 nM
[4]; [9]
  EC50: 122 nM
[4]
  RI: 387
[5]
  chromatographic logD: 3.23
Pb-infected mice; po
  inhibition in vivo at 50 mg/kg: > 85%
Pb-infected mice; [11]
  activities in these scout assays: excellent activities
Pb-infected mice; [10]
  % Inhibition Day 3 PI: full inhibition
  % Inhibition Day 6 PI: completely inhibited parasite growth
[6]
  EC50: 0.315 nM

## COC(=O)c1c[nH]c2cc(CN3CCN(c4ccc(F)cc4)CC3)ccc2c1=O [Compound 8o, Methyl 7-((4-(4-fluorophenyl)piperazin-1-yl)methyl)-4-oxo-1,4-dihydroquinoline-3-carboxylate]
J774 mammalian cells; J774, read-out: EC50 J774 (μM)
  EC50: 2 µM
[2]; [12]
  solubility: ≥ 80 µM
[2]; [13]
  solubility: ≥ 80 µM
[3]
  EC50: 1.06 nM
[4]; [9]
  EC50: 131 nM
[4]
  RI: 74.9
[5]
  chromatographic logD: 2.38
Pb-infected mice; po
  inhibition in vivo at 50 mg/kg: > 85%
Pb-infected mice; [11]
  activities in these scout assays: excellent activities
Pb-infected mice; [10]
  % Inhibition Day 3 PI: full inhibition
[6]
  EC50: 1.75 nM

## COC(=O)c1c[nH]c2cc(CN3CCN(Cc4ccccc4)CC3)c(OC)cc2c1=O [Compound 8x, Methyl 7-((4-benzylpiperazin-1-yl)methyl)-6-methoxy-4-oxo-1,4-dihydroquinoline-3-carboxylate]
J774 mammalian cells; J774, read-out: EC50 J774 (μM)
  EC50: > 20 µM
[2]; [7]
  solubility: ≥ 80 µM
[2]; [8]
  solubility: 60 to 79.9 µM (≈ 25.3 to 33.7 µg/mL)
[3]
  EC50: 9.26 nM
[4]; [9]
  EC50: 2830 nM
[5]
  chromatographic logD: 1.28
Pb-infected mice; [10]
  % Inhibition Day 6 PI: little to moderate protection
[6]
  EC50: 5.45 nM

## COC(=O)c1c[nH]c2ccc(CN3CCN(c4ccc(OC)cc4)CC3)cc2c1=O [Compound 8ag, Methyl 6-((4-(4-methoxyphenyl)piperazin-1-yl)methyl)-4-oxo-1,4-dihydroquinoline-3-carboxylate]
J774 mammalian cells; J774, read-out: EC50 J774 (μM)
  EC50: > 20 µM
[2]; aqueous solution (buffer not named), pH 2, simulated gastric fluid, pH 2.0, read-out: Solubility pH 2.0
  solubility: ≥ 80 µM
[2]; aqueous solution (buffer not named), pH 6.5, aqueous buffer, pH 6.5, read-out: Solubility pH 6.5
  solubility: 20 to 39.9 µM (≈ 8.15 to 16.3 µg/mL)
[3]
  EC50: > 100 nM
[4]; [9]
  EC50: 2900 nM
[4]
  RI: 17.7
[5]
  chromatographic logD: 1.91
Pb-infected mice; [10]
  % Inhibition Day 6 PI: little to moderate protection
[6]
  EC50: 164 nM
